Key:
[1] = biological target: T1, Adenosine receptor A1 (Homo sapiens, UniProt P30542)
T1 sequence (P30542 whole entry): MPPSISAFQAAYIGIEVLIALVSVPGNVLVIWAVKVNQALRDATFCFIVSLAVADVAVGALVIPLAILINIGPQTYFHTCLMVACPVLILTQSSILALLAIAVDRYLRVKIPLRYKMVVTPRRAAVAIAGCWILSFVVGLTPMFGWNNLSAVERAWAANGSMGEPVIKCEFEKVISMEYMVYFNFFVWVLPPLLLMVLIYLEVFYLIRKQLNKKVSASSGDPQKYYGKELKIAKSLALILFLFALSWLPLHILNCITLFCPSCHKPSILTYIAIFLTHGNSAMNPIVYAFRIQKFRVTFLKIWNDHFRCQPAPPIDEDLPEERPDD

[2] = biological target: T2, Neuropeptide Y receptor type 1 (Homo sapiens, UniProt P25929)
T2 sequence (P25929 whole entry): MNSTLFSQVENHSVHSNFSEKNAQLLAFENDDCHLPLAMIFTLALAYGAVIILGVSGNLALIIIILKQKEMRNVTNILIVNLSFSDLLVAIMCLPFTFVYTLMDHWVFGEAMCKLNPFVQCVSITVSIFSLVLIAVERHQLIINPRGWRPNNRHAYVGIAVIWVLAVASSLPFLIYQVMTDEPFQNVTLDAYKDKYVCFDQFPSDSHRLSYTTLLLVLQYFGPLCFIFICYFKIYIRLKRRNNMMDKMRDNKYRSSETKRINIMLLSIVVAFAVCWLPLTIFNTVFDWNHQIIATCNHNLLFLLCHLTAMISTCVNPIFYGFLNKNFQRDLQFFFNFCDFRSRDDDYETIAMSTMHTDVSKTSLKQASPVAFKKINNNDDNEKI

[3] = biological target: D(1A) dopamine receptor (Homo sapiens, UniProt P21728); assay type: functional, cell-based
[4] = biological target: Growth hormone secretagogue receptor type 1 (Homo sapiens, UniProt Q92847)
[5] = biological target: Histamine H1 receptor (Homo sapiens, UniProt P35367)
Histamine H1 receptor, sequence (P35367 whole entry): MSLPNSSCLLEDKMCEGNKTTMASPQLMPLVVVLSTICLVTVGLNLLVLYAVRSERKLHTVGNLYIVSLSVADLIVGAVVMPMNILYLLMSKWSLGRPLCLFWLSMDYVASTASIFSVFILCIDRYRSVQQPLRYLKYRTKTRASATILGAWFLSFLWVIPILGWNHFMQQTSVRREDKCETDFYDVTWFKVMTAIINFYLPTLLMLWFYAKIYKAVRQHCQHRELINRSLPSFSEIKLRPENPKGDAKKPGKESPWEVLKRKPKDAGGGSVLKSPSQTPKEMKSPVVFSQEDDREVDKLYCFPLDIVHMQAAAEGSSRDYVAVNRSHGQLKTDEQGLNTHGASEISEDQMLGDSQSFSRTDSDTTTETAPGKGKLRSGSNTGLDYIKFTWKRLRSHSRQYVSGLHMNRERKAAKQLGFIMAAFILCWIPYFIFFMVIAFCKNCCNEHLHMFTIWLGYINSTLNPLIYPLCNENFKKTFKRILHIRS

[6] = biological target: Kappa-type opioid receptor (Homo sapiens, UniProt P41145)
Kappa-type opioid receptor, sequence (P41145 whole entry): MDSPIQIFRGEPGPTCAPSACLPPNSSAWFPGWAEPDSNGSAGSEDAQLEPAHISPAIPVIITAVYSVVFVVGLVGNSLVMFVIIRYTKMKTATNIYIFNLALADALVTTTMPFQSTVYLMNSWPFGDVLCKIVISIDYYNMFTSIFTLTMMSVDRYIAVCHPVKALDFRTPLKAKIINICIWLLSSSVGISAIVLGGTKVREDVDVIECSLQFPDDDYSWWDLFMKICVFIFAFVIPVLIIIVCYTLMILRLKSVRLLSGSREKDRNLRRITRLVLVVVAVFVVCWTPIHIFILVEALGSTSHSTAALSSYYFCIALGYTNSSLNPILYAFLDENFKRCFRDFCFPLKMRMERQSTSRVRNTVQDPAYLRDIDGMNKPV

[7] = biological target: T3, 5-hydroxytryptamine receptor 2B (Homo sapiens, UniProt P41595); assay type: functional, cell-based
T3 sequence (P41595 whole entry): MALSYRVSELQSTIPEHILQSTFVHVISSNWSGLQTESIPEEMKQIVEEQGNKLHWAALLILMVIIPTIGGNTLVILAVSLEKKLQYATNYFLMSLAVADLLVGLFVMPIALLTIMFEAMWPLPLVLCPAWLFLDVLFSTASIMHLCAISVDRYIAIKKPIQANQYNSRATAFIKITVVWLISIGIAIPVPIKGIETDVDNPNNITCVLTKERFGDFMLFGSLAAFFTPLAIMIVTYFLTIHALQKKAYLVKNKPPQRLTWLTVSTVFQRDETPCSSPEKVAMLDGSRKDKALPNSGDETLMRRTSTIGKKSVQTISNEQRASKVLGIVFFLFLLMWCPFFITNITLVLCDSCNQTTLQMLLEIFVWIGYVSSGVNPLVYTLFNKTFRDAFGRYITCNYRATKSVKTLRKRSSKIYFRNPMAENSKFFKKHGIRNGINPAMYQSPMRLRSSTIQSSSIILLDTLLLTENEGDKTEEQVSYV

[8] = biological target: Neuronal acetylcholine receptor subunit alpha-4 (Homo sapiens, UniProt P43681)
Neuronal acetylcholine receptor subunit alpha-4, sequence (P43681 whole entry): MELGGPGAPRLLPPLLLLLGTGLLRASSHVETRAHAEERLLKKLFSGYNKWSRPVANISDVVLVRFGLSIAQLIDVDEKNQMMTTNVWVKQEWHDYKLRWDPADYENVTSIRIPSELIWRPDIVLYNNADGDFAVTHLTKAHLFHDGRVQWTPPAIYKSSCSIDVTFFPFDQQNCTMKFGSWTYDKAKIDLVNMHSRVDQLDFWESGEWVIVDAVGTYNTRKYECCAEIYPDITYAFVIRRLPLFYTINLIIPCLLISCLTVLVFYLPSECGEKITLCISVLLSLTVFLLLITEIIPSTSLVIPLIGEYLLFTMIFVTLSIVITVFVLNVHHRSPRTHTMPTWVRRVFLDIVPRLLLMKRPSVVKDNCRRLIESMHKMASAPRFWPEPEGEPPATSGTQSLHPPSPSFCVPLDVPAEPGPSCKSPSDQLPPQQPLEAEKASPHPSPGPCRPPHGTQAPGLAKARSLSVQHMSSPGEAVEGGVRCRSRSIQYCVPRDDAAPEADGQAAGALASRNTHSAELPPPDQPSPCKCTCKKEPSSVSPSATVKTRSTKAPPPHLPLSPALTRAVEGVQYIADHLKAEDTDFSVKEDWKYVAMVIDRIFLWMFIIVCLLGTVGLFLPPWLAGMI

[9] = biological target: T3, 5-hydroxytryptamine receptor 2B; assay type: functional, cell-based; remark: listed apart in the source
[10] = biological target: T4, Muscarinic acetylcholine receptor M1 (Homo sapiens, UniProt P11229); assay type: functional
T4 sequence (P11229 whole entry): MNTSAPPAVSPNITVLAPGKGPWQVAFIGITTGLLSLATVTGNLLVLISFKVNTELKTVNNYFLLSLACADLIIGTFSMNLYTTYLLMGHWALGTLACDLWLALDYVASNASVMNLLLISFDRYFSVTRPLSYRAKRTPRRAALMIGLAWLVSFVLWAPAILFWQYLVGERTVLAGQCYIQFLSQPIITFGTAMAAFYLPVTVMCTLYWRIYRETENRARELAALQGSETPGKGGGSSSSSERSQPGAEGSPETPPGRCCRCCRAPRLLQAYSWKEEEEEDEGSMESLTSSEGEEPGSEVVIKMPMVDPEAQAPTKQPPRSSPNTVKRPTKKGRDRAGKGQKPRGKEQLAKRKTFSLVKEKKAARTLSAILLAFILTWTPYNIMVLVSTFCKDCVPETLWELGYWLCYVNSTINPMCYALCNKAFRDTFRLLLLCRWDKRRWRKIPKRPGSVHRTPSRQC

[11] = biological target: T5, Alpha-2B adrenergic receptor (Homo sapiens, UniProt P18089)
T5 sequence (P18089 whole entry): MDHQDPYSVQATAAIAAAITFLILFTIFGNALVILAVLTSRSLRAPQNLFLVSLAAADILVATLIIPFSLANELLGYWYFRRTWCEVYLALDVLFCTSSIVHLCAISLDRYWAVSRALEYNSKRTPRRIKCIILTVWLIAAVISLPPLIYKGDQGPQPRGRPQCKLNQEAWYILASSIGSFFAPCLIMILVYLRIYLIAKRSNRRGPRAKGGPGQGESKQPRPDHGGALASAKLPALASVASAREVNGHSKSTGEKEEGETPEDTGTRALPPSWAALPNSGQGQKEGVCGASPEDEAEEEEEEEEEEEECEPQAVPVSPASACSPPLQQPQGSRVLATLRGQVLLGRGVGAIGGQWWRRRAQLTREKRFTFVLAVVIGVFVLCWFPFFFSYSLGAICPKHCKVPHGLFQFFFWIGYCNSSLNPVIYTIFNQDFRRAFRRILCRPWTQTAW

[12] = biological target: Vasopressin V2 receptor (Homo sapiens, UniProt P30518)
Vasopressin V2 receptor, sequence (P30518 whole entry): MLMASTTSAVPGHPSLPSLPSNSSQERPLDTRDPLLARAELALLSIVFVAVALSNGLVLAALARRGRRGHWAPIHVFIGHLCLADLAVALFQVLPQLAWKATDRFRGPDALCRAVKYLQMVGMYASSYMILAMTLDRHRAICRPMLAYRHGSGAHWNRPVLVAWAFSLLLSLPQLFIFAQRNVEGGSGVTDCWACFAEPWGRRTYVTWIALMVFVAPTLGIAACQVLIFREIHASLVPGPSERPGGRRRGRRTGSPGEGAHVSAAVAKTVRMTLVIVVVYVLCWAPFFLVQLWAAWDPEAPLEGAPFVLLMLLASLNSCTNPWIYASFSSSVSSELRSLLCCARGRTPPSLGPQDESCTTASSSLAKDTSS

[13] = biological target: Gamma-aminobutyric acid receptor subunit alpha-1 (Rattus norvegicus, UniProt P62813); assay type: functional
Gamma-aminobutyric acid receptor subunit alpha-1, sequence (P62813 whole entry): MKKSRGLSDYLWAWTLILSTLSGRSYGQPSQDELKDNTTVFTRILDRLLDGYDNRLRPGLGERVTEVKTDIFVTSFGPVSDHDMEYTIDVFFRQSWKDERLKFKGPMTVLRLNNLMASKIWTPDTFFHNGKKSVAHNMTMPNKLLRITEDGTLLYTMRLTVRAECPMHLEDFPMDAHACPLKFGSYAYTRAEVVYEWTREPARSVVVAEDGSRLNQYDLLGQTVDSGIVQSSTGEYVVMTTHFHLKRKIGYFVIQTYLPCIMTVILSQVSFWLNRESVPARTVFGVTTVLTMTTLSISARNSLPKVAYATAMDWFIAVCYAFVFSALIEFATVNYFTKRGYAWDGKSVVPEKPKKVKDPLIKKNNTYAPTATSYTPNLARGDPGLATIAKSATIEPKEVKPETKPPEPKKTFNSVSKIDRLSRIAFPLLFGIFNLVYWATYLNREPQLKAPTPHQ

[14] = biological target: T6, Alpha-2C adrenergic receptor (Homo sapiens, UniProt P18825); assay type: functional
T6 sequence (P18825 whole entry): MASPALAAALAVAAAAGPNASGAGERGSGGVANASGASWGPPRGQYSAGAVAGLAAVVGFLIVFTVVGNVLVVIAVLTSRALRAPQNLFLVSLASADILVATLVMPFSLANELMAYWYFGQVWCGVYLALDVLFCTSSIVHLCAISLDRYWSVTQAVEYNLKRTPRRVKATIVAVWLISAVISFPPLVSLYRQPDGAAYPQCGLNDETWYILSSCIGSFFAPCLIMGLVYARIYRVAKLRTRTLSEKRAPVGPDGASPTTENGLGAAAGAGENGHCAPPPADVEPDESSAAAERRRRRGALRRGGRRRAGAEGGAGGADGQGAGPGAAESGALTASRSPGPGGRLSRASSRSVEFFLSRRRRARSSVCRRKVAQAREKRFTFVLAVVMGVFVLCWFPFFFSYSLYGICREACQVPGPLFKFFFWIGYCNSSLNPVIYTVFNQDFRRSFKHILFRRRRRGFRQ

[15] = biological target: Sodium-dependent noradrenaline transporter (Homo sapiens, UniProt P23975)
[16] = biological target: Voltage-dependent L-type calcium channel subunit alpha-1C (Rattus norvegicus, UniProt P22002); assay type: functional
Voltage-dependent L-type calcium channel subunit alpha-1C, sequence (P22002 whole entry): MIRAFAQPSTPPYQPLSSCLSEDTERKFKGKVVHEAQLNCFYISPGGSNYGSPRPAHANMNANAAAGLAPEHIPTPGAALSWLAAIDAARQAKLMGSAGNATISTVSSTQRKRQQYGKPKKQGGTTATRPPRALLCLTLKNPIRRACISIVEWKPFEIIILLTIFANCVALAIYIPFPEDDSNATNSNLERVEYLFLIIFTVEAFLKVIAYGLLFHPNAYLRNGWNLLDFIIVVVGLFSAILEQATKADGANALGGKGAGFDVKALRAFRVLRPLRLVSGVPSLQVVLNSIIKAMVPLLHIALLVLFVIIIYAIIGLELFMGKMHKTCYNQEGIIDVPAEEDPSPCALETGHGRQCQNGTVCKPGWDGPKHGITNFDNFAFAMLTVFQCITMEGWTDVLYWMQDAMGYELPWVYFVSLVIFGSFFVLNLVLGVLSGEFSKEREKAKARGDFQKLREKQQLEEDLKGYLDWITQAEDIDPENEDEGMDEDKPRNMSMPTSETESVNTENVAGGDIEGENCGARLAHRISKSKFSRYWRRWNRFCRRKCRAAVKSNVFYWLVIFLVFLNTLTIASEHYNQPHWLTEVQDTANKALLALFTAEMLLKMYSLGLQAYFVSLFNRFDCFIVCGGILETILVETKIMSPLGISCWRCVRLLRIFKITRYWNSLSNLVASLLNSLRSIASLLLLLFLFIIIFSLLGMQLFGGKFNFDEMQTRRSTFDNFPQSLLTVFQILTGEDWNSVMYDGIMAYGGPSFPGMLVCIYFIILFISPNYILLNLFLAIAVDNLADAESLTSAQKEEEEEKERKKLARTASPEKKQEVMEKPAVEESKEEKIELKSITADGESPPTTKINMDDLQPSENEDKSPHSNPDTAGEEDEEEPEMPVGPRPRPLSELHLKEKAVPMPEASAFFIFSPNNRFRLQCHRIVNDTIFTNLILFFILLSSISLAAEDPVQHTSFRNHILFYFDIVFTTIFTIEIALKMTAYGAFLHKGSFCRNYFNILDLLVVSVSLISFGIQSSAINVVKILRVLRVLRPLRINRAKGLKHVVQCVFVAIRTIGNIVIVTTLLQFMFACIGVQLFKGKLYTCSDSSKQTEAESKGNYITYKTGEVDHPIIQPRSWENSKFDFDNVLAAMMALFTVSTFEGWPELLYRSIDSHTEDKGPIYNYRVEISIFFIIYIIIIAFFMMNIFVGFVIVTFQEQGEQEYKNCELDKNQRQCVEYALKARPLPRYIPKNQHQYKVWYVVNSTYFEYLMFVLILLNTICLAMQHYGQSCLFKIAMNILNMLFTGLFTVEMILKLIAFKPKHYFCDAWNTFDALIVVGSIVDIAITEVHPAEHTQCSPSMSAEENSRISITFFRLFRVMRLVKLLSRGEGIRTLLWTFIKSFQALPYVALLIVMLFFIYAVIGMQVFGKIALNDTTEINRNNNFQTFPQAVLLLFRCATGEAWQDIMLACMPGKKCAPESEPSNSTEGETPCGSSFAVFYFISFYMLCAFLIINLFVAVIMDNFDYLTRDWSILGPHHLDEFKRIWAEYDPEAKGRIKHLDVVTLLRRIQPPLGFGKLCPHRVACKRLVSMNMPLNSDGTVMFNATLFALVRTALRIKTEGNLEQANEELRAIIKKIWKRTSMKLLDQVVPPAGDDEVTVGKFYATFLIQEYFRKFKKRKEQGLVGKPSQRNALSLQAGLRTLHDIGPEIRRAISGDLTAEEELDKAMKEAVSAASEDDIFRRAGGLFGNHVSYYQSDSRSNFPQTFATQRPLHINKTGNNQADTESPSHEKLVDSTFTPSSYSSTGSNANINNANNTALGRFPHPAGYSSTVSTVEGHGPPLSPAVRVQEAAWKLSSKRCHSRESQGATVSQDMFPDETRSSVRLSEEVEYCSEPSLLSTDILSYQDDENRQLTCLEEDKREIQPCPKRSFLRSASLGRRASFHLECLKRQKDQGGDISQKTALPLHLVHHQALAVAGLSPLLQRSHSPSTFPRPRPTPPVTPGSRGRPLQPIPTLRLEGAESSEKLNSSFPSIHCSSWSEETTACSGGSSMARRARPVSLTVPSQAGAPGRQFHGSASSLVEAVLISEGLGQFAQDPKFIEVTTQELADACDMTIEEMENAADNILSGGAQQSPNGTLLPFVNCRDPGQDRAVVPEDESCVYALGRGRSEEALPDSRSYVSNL
Further: assay procedure not described here.

| SMILES | AC50 [1] [µM] | AC50 [2] [µM] | AC50 [3] [µM] | AC50 [4] [µM] | AC50 [5] [µM] | AC50 [6] [µM] | AC50 [7] [µM] | AC50 [8] [µM] | AC50 [9] [µM] | AC50 [10] [µM] | AC50 [11] [µM] | AC50 [12] [µM] | AC50 [13] [µM] | AC50 [14] [µM] | AC50 [15] [µM] | AC50 [16] [µM] |
| --- | --- | --- | --- | --- | --- | --- | --- | --- | --- | --- | --- | --- | --- | --- | --- | --- |
| O=C(Oc1ccc2c(c1)CCCN2C(=O)C(Cl)Cl)c1ccco1 [QUINFAMIDE] | 29.4 |  |  |  |  |  |  |  |  |  |  |  |  |  |  |  |
| CC(C)(C)C(=O)OCOC(=O)[C@@H]1N2C(=O)[C@@H](NC(=O)[C@H](N)c3ccccc3)[C@H]2SC1(C)C [PIVAMPICILLIN] | > 30 |  |  |  |  |  |  |  |  |  |  |  |  |  |  |  |
| COc1ccc(C(=O)Nc2ccccc2CCC2CCCCN2C)cc1 (stereo not given) [ENCAINIDE] |  | > 30 | > 10 | > 30 | > 10 | 3.6 | > 10 | > 10 | > 10 | > 10 | > 10 | > 30 | > 10 | > 10 | > 10 | > 10 |
| CCCCS(=O)(=O)N[C@@H](Cc1ccc(OCCCCC2CCNCC2)cc1)C(=O)O [TIROFIBAN] | > 30 |  |  |  |  |  |  |  |  |  |  |  |  |  |  |  |
| CCOc1ccc(Cc2cc([C@@H]3O[C@H](CO)[C@@H](O)[C@H](O)[C@H]3O)ccc2Cl)cc1 [DAPAGLIFLOZIN] |  | > 30 |  | > 30 | > 10 | > 10 |  | > 10 |  | > 10 | > 10 | > 30 | > 10 | > 10 | > 30 | > 10 |
| Nc1ccncc1N [AMIFAMPRIDINE] | > 30 |  |  |  |  |  |  |  |  |  |  |  |  |  |  |  |
| CCCC1O[C@@H]2C[C@H]3[C@@H]4CCC5=CC(=O)C=C[C@]5(C)[C@H]4[C@@H](O)C[C@]3(C)[C@]2(C(=O)CO)O1 (stereo not given in full) [BUDESONIDE] |  | > 10 | > 10 | > 10 |  | > 10 | > 10 | > 10 | > 10 |  |  | > 10 | > 10 | > 10 | > 10 | > 10 |
| CN(C)CCc1c[nH]c2ccc(C[C@H]3COC(=O)N3)cc12 [ZOLMITRIPTAN] |  | > 30 | > 30 | > 30 | > 30 | > 30 | > 30 | > 30 | > 30 | > 30 | > 30 | > 30 | > 30 | > 30 | > 30 |  |
| CC[C@H]1CN2CCc3cc(OC)c(OC)cc3[C@@H]2C[C@@H]1C[C@H]1NCCc2cc(OC)c(OC)cc21 [EMETINE] | > 30 | > 30 | > 30 | > 30 |  | > 30 | > 30 | > 30 | > 30 |  |  | > 30 | > 30 | 0.23 | > 30 |  |
| C=CCCCCCCCCC(=O)O [UNDECYLENIC ACID] | > 30 |  |  |  |  |  |  |  |  |  |  |  |  |  |  |  |
| C=CCN1C[C@H](C(=O)N(CCCN(C)C)C(=O)NCC)C[C@@H]2c3cccc4[nH]cc(c34)C[C@H]21 [CABERGOLINE] |  | > 10 | 0.0367 | > 10 | 6.8 | > 10 |  | > 10 | 0.189 | > 10 |  | > 10 | > 10 | 0.3 | 8.7 | > 10 |
| C[N+]1(CCCCC[N+]2(C)CCCC2)CCCC1 [PENTOLINIUM] |  |  |  |  |  |  |  | > 30 |  |  |  |  |  |  |  |  |
| CCC(CC)(CC(=O)Nc1cccc(/C=C/c2nc(C3CCC3)cs2)c1)C(=O)O | > 30 | > 30 |  | > 30 |  |  |  | > 30 |  |  |  | > 30 |  |  | > 30 |  |
| CN(C)CCC=C1c2ccccc2C=Cc2ccccc21 [CYCLOBENZAPRINE] |  | > 30 | > 10 | > 30 | 0.021 |  | 1.25 | > 10 | > 10 | 0.18 | > 10 | > 30 | > 10 | 3.9 | 0.378 | > 10 |
| CN(C)CC/C=C1\c2ccccc2CSc2ccccc21 [DOTHIEPIN] |  | > 30 | > 30 | > 30 | 0.019 |  | 3.6 | > 30 | > 30 |  | 1.3 | > 30 | > 30 | 9.8 | 0.8 | 24 |
| CC[C@@H](C(N)=O)N1CCCC1=O |  | > 30 | > 30 | > 30 | > 10 | > 30 | > 30 | > 30 | > 30 | > 30 | > 30 | > 30 | > 30 | > 30 | > 30 |  |
| Clc1cc(Cl)c(OCC#CI)cc1Cl [HALOPROGIN] | 15.4 |  |  |  |  |  |  |  |  |  |  |  |  |  |  |  |
| CC(=O)OCC1=C(C(=O)O)N2C(=O)[C@@H](NC(=O)[C@H](N)c3ccccc3)[C@H]2SC1 [CEPHALOGLYCIN] | > 30 |  |  |  |  |  |  |  |  |  |  |  |  |  |  |  |
| CCOc1ccccc1OCC1CNCCO1 (stereo not given) [VILOXAZINE] |  | > 30 | > 10 | > 30 | > 10 | > 10 | > 10 | > 10 | > 10 | > 10 | > 10 | > 30 | > 10 | > 10 | 0.97 | > 10 |
| O=[N+]([O-])c1cn2c(n1)OC[C@@H](OCc1ccc(OC(F)(F)F)cc1)C2 [PRETOMANID] |  | > 30 |  | > 30 | > 10 | > 10 |  |  |  | > 10 | > 10 | > 30 | > 10 | > 10 | > 10 | > 10 |
| CC(=O)c1ccc2c(c1)N(CCCN(C)C)c1ccccc1S2 [ACEPROMAZINE] |  |  | > 30 |  |  |  |  |  |  |  |  |  |  |  |  |  |

Source: ChEMBL document CHEMBL5291721, “A preclinical secondary pharmacology resource illuminates target-adverse drug reaction associations of marketed drugs” (Nat Commun, 2023)
